Earlier results in patent US20060083786A1 (Glenmark Pharmaceuticals Limited, priority 2004, published 2006).

Settings: in vivo

## O=C(O)COCCN1CCN([C@H](c2ccccc2)c2ccc(Cl)cc2)CC1 [Levocetirizine]
  side effects on the central nervous system: free from side effects
